Key:
[1] = refractive index (Na D-line) (dimensionless); xn = mol fraction of the nth substance listed; settings: 100.5 kPa, Liquid, Standard Abbe refractometry
[2] = xn = mol fraction of the nth substance listed

CCCCCC(=O)OCC [ethyl hexanoate] + CCO
Settings | refractive index, 288.15 K | refractive index, 298.15 K | refractive index, 308.15 K | refractive index, 318.15 K | surface tension liquid-gas, 288.15 K [mN/m] | surface tension liquid-gas, 298.15 K [mN/m] | surface tension liquid-gas, 308.15 K [mN/m] | surface tension liquid-gas, 318.15 K [mN/m]
[1], x1 = 0.05 | 1.36942 | 1.36535 | 1.36109 | 1.35703 | – | – | – | –
[1], x1 = 0.1 | 1.37451 | 1.37034 | 1.36602 | 1.36185 | – | – | – | –
[1], x1 = 0.15 | 1.37883 | 1.37461 | 1.37024 | 1.36601 | – | – | – | –
[1], x1 = 0.2 | 1.38253 | 1.37826 | 1.37388 | 1.3696 | – | – | – | –
[1], x1 = 0.25 | 1.38577 | 1.38146 | 1.37706 | 1.37274 | – | – | – | –
[1], x1 = 0.3 | 1.38864 | 1.38429 | 1.37986 | 1.3755 | – | – | – | –
[1], x1 = 0.35 | 1.39119 | 1.38681 | 1.38236 | 1.37795 | – | – | – | –
[1], x1 = 0.4 | 1.39347 | 1.38907 | 1.3846 | 1.38016 | – | – | – | –
[1], x1 = 0.45 | 1.39553 | 1.39111 | 1.38663 | 1.38216 | – | – | – | –
[1], x1 = 0.5 | 1.3974 | 1.39296 | 1.38847 | 1.38398 | – | – | – | –
[1], x1 = 0.55 | 1.3991 | 1.39465 | 1.39016 | 1.38564 | – | – | – | –
[1], x1 = 0.6 | 1.40066 | 1.3962 | 1.3917 | 1.38716 | – | – | – | –
[1], x1 = 0.65 | 1.4021 | 1.39763 | 1.39312 | 1.38857 | – | – | – | –
[1], x1 = 0.7 | 1.40343 | 1.39895 | 1.39444 | 1.38988 | – | – | – | –
[1], x1 = 0.75 | 1.40466 | 1.40019 | 1.39568 | 1.39111 | – | – | – | –
[1], x1 = 0.8 | 1.40579 | 1.40133 | 1.39682 | 1.39225 | – | – | – | –
[1], x1 = 0.85 | 1.40684 | 1.40238 | 1.39787 | 1.3933 | – | – | – | –
[1], x1 = 0.9 | 1.4078 | 1.40334 | 1.39882 | 1.39426 | – | – | – | –
[1], x1 = 0.95 | 1.40868 | 1.40422 | 1.39972 | 1.39515 | – | – | – | –
[1], x1 = 1 | 1.4095 | 1.40504 | 1.40055 | 1.39597 | – | – | – | –
[2], x1 = 0.05 | – | – | – | – | 23.4 | 22.7 | 21.8 | 20.9
[2], x1 = 0.1 | – | – | – | – | 23.8 | 23 | 22.1 | 21.2
[2], x1 = 0.15 | – | – | – | – | 24.1 | 23.2 | 22.4 | 21.5
[2], x1 = 0.2 | – | – | – | – | 24.3 | 23.5 | 22.6 | 21.7
[2], x1 = 0.25 | – | – | – | – | 24.5 | 23.7 | 22.8 | 21.9
[2], x1 = 0.3 | – | – | – | – | 24.7 | 23.9 | 23 | 22
[2], x1 = 0.35 | – | – | – | – | 24.9 | 24 | 23.1 | 22.2
[2], x1 = 0.4 | – | – | – | – | 25.1 | 24.2 | 23.3 | 22.3
[2], x1 = 0.45 | – | – | – | – | 25.2 | 24.3 | 23.4 | 22.5
[2], x1 = 0.5 | – | – | – | – | 25.4 | 24.4 | 23.5 | 22.6
[2], x1 = 0.55 | – | – | – | – | 25.5 | 24.5 | 23.6 | 22.7
[2], x1 = 0.6 | – | – | – | – | 25.6 | 24.6 | 23.7 | 22.8
[2], x1 = 0.65 | – | – | – | – | 25.7 | 24.7 | 23.8 | 22.9
[2], x1 = 0.7 | – | – | – | – | 25.8 | 24.9 | 23.9 | 23
[2], x1 = 0.75 | – | – | – | – | 25.9 | 25 | 24 | 23.1
[2], x1 = 0.8 | – | – | – | – | 26 | 25.1 | 24.1 | 23.2
[2], x1 = 0.85 | – | – | – | – | 26.1 | 25.1 | 24.2 | 23.3
[2], x1 = 0.9 | – | – | – | – | 26.2 | 25.2 | 24.3 | 23.4
[2], x1 = 0.95 | – | – | – | – | 26.3 | 25.3 | 24.4 | 23.5
[2], x1 = 1 | – | – | – | – | 26.4 | 25.4 | 24.5 | 23.6

CCCCCCCC(=O)OCC [ethyl octanoate] + CCO
Settings | refractive index, 288.15 K | refractive index, 298.15 K | refractive index, 308.15 K | refractive index, 318.15 K | surface tension liquid-gas, 288.15 K [mN/m] | surface tension liquid-gas, 298.15 K [mN/m] | surface tension liquid-gas, 308.15 K [mN/m] | surface tension liquid-gas, 318.15 K [mN/m]
[1], x1 = 0.05 | 1.37185 | 1.36779 | 1.36356 | 1.35953 | – | – | – | –
[1], x1 = 0.1 | 1.37876 | 1.37462 | 1.37036 | 1.36625 | – | – | – | –
[1], x1 = 0.15 | 1.38444 | 1.38028 | 1.37601 | 1.37184 | – | – | – | –
[1], x1 = 0.2 | 1.38922 | 1.38502 | 1.38074 | 1.37654 | – | – | – | –
[1], x1 = 0.25 | 1.39327 | 1.38905 | 1.38477 | 1.38054 | – | – | – | –
[1], x1 = 0.3 | 1.39676 | 1.39252 | 1.38823 | 1.38398 | – | – | – | –
[1], x1 = 0.35 | 1.39979 | 1.39553 | 1.39125 | 1.38698 | – | – | – | –
[1], x1 = 0.4 | 1.40245 | 1.39818 | 1.39389 | 1.38961 | – | – | – | –
[1], x1 = 0.45 | 1.40481 | 1.40053 | 1.39624 | 1.39195 | – | – | – | –
[1], x1 = 0.5 | 1.40692 | 1.40263 | 1.39835 | 1.39403 | – | – | – | –
[1], x1 = 0.55 | 1.40882 | 1.40451 | 1.40023 | 1.39591 | – | – | – | –
[1], x1 = 0.6 | 1.41053 | 1.40621 | 1.40193 | 1.3976 | – | – | – | –
[1], x1 = 0.65 | 1.41208 | 1.40776 | 1.40348 | 1.39914 | – | – | – | –
[1], x1 = 0.7 | 1.4135 | 1.40917 | 1.40489 | 1.40054 | – | – | – | –
[1], x1 = 0.75 | 1.4148 | 1.41047 | 1.40619 | 1.40183 | – | – | – | –
[1], x1 = 0.8 | 1.41599 | 1.41166 | 1.40739 | 1.40302 | – | – | – | –
[1], x1 = 0.85 | 1.41709 | 1.41276 | 1.4085 | 1.40412 | – | – | – | –
[1], x1 = 0.9 | 1.4181 | 1.41378 | 1.40952 | 1.40515 | – | – | – | –
[1], x1 = 0.95 | 1.41904 | 1.41472 | 1.41047 | 1.40611 | – | – | – | –
[1], x1 = 1 | 1.41991 | 1.4156 | 1.41137 | 1.40702 | – | – | – | –
[2], x1 = 0.05 | – | – | – | – | 23.6 | 22.9 | 22 | 21.1
[2], x1 = 0.1 | – | – | – | – | 24 | 23.3 | 22.5 | 21.6
[2], x1 = 0.15 | – | – | – | – | 24.4 | 23.7 | 22.8 | 21.9
[2], x1 = 0.2 | – | – | – | – | 24.8 | 24 | 23.2 | 22.3
[2], x1 = 0.25 | – | – | – | – | 25.1 | 24.3 | 23.4 | 22.6
[2], x1 = 0.3 | – | – | – | – | 25.3 | 24.5 | 23.7 | 22.8
[2], x1 = 0.35 | – | – | – | – | 25.5 | 24.8 | 23.9 | 23
[2], x1 = 0.4 | – | – | – | – | 25.7 | 24.9 | 24.1 | 23.2
[2], x1 = 0.45 | – | – | – | – | 25.9 | 25.1 | 24.2 | 23.4
[2], x1 = 0.5 | – | – | – | – | 26.1 | 25.3 | 24.4 | 23.5
[2], x1 = 0.55 | – | – | – | – | 26.2 | 25.4 | 24.5 | 23.7
[2], x1 = 0.6 | – | – | – | – | 26.3 | 25.6 | 24.7 | 23.8
[2], x1 = 0.65 | – | – | – | – | 26.5 | 25.7 | 24.8 | 24
[2], x1 = 0.7 | – | – | – | – | 26.6 | 25.8 | 24.9 | 24.1
[2], x1 = 0.75 | – | – | – | – | 26.7 | 25.9 | 25 | 24.2
[2], x1 = 0.8 | – | – | – | – | 26.8 | 26 | 25.1 | 24.3
[2], x1 = 0.85 | – | – | – | – | 26.9 | 26.1 | 25.2 | 24.4
[2], x1 = 0.9 | – | – | – | – | 27 | 26.2 | 25.3 | 24.5
[2], x1 = 0.95 | – | – | – | – | 27.1 | 26.3 | 25.4 | 24.6
[2], x1 = 1 | – | – | – | – | 27.2 | 26.4 | 25.5 | 24.7
